Measured values published in article PMC7280029, “Development of FRET‐based high‐throughput screening for viral RNase III inhibitors” (Molecular Plant Pathology, 2020).

Assays:
[1] = biological target: CSR3 (class 1 RNase III of Sweet potato chlorotic stunt virus) (Sweet potato chlorotic stunt virus, UniProt Q8JJW8); assay: biochemical; type: biochemical; conditions: for DSS (drug-sensitivity score): dose-response 1.25 nM to 50 µM, Breeze software
Experimental: A dose–response assay was carried out with the top 109 compounds (concentration range 1.25 nM to 50 µM). The data were analysed with Breeze software, which generates dose–response curves and calculates the half‐maximal inhibitory concentration (IC50) and drug‐sensitivity score (DSS) for every compound. Considering that IC50 alone cannot comprehensively evaluate the drug sensitivity of the dose–response model in HTS assay, DSS was developed by Yadav et al. (2014) as a systematic algorithmic solution that integrated five factors: IC50, the slope at IC50, minimum activity level, and top and bottom asymptotes of dose–response model. The DSS values ranged from 0 to 19.2. The three structures differ (Figure 6, starred compounds). […] Table S1 lists the 109 compounds from the dose–response screens for CSR3, including information for compound identity, IC50, DSS, and dose–response curves.
For the HTS assay, plates (10 µM compound in each well) were prepared with an Echo liquid handler (Labcyte) at the FIMM (Institute for Molecular Medicine Finland) High‐Throughput Biomedicine unit. CSR3 and annealed siRNA were diluted to […] and 750 nM, respectively, in reaction buffer (50 mM Tris‐HCl, 125 mM NaCl, 25 mM MgCl2, pH 8.0). CSR3 solutions were dispensed into the wells of plates (10 µl CSR3 per well). Plates were incubated at room temperature for 15 min with shaking (450 rpm). Subsequently, 10 µl substrate was dispensed per well. […] The dose–response assay with six compound concentrations (range, 1.25 nM to 50 µM) was carried out with the same conditions. Plates were sealed, centrifuged briefly, and then, immediately analysed with a PHERAstar FS (BMG Labtech) with a fluorescence‐intensity optic module (excitation at 485 ± 6 nm, detection at 520 ± 5 nm) for 12 cycles (c.17 min total) at 37 °C. All dispensing was done using the BioTek MultiFlo FX. All screening plates contained positive‐control wells (lacking CSR3) and negative‐control wells (25 nl dimethyl sulphoxide, vehicle), which were used as standards to calculate the PI of compounds.
The PI of each compound for CSR3 was calculated according to Equation 2. A PI threshold of 30% was used as the cut‐off value for one concentration of HTS. Furthermore, the dose–response curves of PI in function of compound concentration were evaluated with DSS according to Yadav et al. (2014).(2) PI=1001-Ss-Sc+/SC--Sc+% where Sc + is the mean of the slope of the positive control, Sc − is the mean of the slope of the negative control, and Ss is the mean of the slope of samples.

[2] = tested on: HIV-1 reverse transcriptase; parameters: method as in PubChem database; conditions: ref PubChem database; cited from earlier work
[3] = tested on: human heat shock 70 kDa protein; parameters: method as in PubChem database; conditions: ref PubChem database; cited from earlier work
[4] = tested on: Cytokine/receptor Binary Complex of humans (4KC3_B); parameters: method as in PubChem database; conditions: ref PubChem database; cited from earlier work
CSR3 = CSR3 kinetics with labelled siRNA substrate (Michaelis-Menten); type: biochemical, Sweet potato chlorotic stunt virus; conditions: 50 nM CSR3, 50-800 nM labelled siRNA
Experimental: To monitor the kinetics of CSR3 endoribonuclease activity, two‐fold dilutions (yielding 50–800 nM) of the labelled siRNA substrate were tested with 50 nM CSR3. As expected, start points of raw fluorescence increased with the FRET‐siRNA concentration (Figure 4a). Moreover, the slope of the raw fluorescence between all neighbouring detection cycles was calculated for all cycle numbers. […] Finally, the maximal slope for every labelled siRNA concentration was used to determine the catalytic rate of CSR3.
The HTS assay was designed to maximize siRNA cleavage by CSR3. We used a donor–quencher fluorogenic siRNA as the substrate for CSR3. […] To assess CSR3 activity, five labelled siRNA concentrations (50–800 nM) were used with 50 nM CSR3. To test the reproducibility and precision of the assay, full plates containing only negative (50 nM CSR3) and positive reactions (lacking CSR3) were tested with 375 nM labelled siRNA. […]
The kinetic constant (K d) for CSR3 was calculated using the three‐parameter Michaelis–Menten model (MM.3) included in the R package dcr (Ritz et al., 2015). The statistical significance of differences between values was assessed with one‐way ANOVA using the aov function in the R package.

Chain of CSR3 (class 1 RNase III of Sweet potato chlorotic stunt virus) (Q8JJW8 entry or part of it): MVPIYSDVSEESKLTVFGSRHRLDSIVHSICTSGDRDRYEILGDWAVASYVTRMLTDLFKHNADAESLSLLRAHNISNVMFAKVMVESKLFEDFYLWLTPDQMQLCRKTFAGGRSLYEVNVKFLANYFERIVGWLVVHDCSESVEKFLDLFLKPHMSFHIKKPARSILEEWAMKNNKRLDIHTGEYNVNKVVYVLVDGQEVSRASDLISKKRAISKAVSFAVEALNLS

Row | Molecule | IC50 [1] [nM] | DSS (drug-sensitivity score) [1] | other results
1 | CN1CCc2cccc3c2[C@H]1Cc1ccc(O)c(O)c1-3 [FIMM000096] | 2900 | 12.7 | –
2 | O=C1c2c(O)ccc(O)c2C(=O)c2c(NCCNCCO)ccc(NCCNCCO)c21 [FIMM000490] | 1810 | 14.9 | –
3 | O=C(O)c1ccc(C2Nc3c(Br)cccc3C3C=CCC32)cc1 (stereo not drawn) [FIMM022230] | 1860 | 13.8 | –
4 | Cc1ccc(C)c(C(=O)CSc2nnc[nH]2)c1 [FIMM027745] | 647 | 19.2 | activity in inhibitor screen [2]: inactive; activity in inhibitor screen [3]: inactive
5 | CCn1c(C)nc2cc(S(N)(=O)=O)ccc21 [FIMM028155] | 782 | 17.6 | –
6 | Cc1ccc([C@@H]2Nc3ccc(C(=O)O)cc3[C@@H]3C=CC[C@@H]32)cc1 [FIMM031755] | 1270 | – | activity in inhibitor screening assay [4]: effective at micromolar concentrations
7 | CN1C(=O)C(=CNc2ccc(F)cc2)C(=O)N(C)C1=O [FIMM059523] | > 50000 | 0 | –
8 | O=S(=O)(O)c1cccc2cc(O)ccc12 [FIMM072577] | 699 | 18.3 | –
9 | c1cnc2[nH]c(Nc3ccc(Nc4nc5cccnc5[nH]4)cc3)nc2c1 [FIMM092170] | 2840 | 12.9 | –
10 | CCn1c(S)nnc1CCNC(=O)c1cccs1 [FIMM099662] | 3070 | 11.7 | –
11 | COc1cc(C=C2C(=O)NC(=S)NC2=O)ccc1OCc1ccccc1[N+](=O)[O-] [FIMM101864] | 3850 | 11.2 | –
12 | CC(C)(C)C1CCc2c(sc(NC(=O)C3CC=CCC3C(=O)O)c2C(N)=O)C1 (stereo not drawn) [FIMM104970] | – | 0 | –
13 | labelled siRNA: 22 bp siRNA with two-nucleotide 3' overhang, FAM reporter and BHQ1 quencher on the sense strand; CSR3 substrate (sense CGUAGUGGAAGUGGGAGAGGTC; antisense CCUCUCCCACUUCCACUACGTG; FAM reporter and BHQ1 quencher on sense strand, positions not given here) | – | – | Km (CSR3; Michaelis-Menten model MM.3): 0.229 µM; Vmax (CSR3; maximal slope): 22.47
